Several values for one entry are separate records, joined by “and”; a condition that tells them apart may be missing. Equal entries are not always repeated. Where two headings read alike, the source gives them in different places.
Experiments:
[1] = snar bond
[2] = target: CFTR-mediated chloride transport (Homo sapiens, UniProt P13569); experiment: Corrector Assay A - membrane potential dye assay (enteroid cells); conditions: for Corrector Assay A % activity: % of chloride transport of triple combination control (1 μM (14S)-dispiro macrocycle + 3 μM tezacaftor + 300 nM ivacaftor); for EC50: read-out: Corrector Assay A EC50, human intestinal enteroid cells, 18-24 h incubation, acute 10 μM forskolin + 300 nM ivacaftor
[3] = from CC1(C)C[C@H](CCC(Nc2cccc(S(=O)(=O)NC(=O)c3ccc(C(C)(C)C)nc3F)n2)c2cccc(Br)n2)CN1, 15-membered ring, K2CO3, NMP, 21.9 mM, 165.0 °C, 16.0 h

SMILES: CC(C)(C)OC(=O)N1C[C@@H](CCC(c2ccccc2)n2ccc(S(=O)(=O)NC(=O)c3ccc(C(C)(C)C)nc3Cl)n2)CC1(C)C (stereo partly drawn)
- ring closure, yield after HPLC ([1]; the molecule shown is the open-chain precursor, 14-membered ring, K2CO3, NMP, 74.5 mM, 140.0 °C, 2 steps): 13%

SMILES: CC(C)(C)c1ccc2c(n1)N1CC(CC1(C)C)OCCNc1cccc(n1)S(=O)(=O)NC2=O (stereo not drawn)
- ring closure, yield after HPLC ([1]; from CC(C)(C)OC(=O)N1CC(OCCNc2cccc(S(=O)(=O)NC(=O)c3ccc(C(C)(C)C)nc3F)n2)CC1(C)C, 15-membered ring, K2CO3, NMP, 73.3 mM, 160.0 °C, 2 steps): 61%

SMILES: CC(C)(C)c1ccc2c(n1)N1C[C@@H](CCC(C3=CCN(C(=O)OCc4ccccc4)CC3)Nc3cccc(n3)S(=O)(=O)NC2=O)CC1(C)C (stereo partly drawn)
- ring closure, yield after HPLC ([1]; from CC1(C)C[C@H](CCC(Nc2cccc(S(=O)(=O)NC(=O)c3ccc(C(C)(C)C)nc3F)n2)C2=CCN(C(=O)OCc3ccccc3)CC2)CN1, 15-membered ring, K2CO3/3A MS, NMP, 29.7 mM, 155.0 °C, 18.0 h, 2 steps): 89%

SMILES: CC(C)(C)c1ccc2c(n1)N1C[C@@H](CCC(C3CCN(C(=O)OCc4ccccc4)CC3)Nc3cccc(n3)S(=O)(=O)NC2=O)CC1(C)C (stereo partly drawn)
- ring closure, yield after HPLC ([1]; from CC1(C)C[C@H](CCC(Nc2cccc(S(=O)(=O)NC(=O)c3ccc(C(C)(C)C)nc3F)n2)C2CCN(C(=O)OCc3ccccc3)CC2)CN1, 15-membered ring, K2CO3, NMP, 42.0 mM, 140.0 °C, 16.0 h): 58%

SMILES: CC(C)(C)c1ccc2c(n1)N1C[C@@H](CCC(CCC(C3CC3)C3CC3)Nc3cccc(n3)S(=O)(=O)NC2=O)CC1(C)C (stereo partly drawn)
- ring closure, yield after HPLC ([1]; from CC(C)(C)OC(=O)N1C[C@@H](CCC(CCC(C2CC2)C2CC2)Nc2cccc(S(=O)(=O)NC(=O)c3ccc(C(C)(C)C)nc3F)n2)CC1(C)C, 15-membered ring, K2CO3, DMSO, 77.1 mM, 140.0 °C, 2 steps): 46%

SMILES: CC(C)(C)c1ccc2c(n1)N1C[C@@H](CCC(c3cc(Cl)ccn3)Nc3cccc(n3)S(=O)(=O)NC2=O)CC1(C)C (stereo partly drawn)
- ring closure, yield after HPLC ([1]; from CC(C)(C)OC(=O)N1C[C@@H](CCC(Nc2cccc(S(=O)(=O)NC(=O)c3ccc(C(C)(C)C)nc3F)n2)c2cc(Cl)ccn2)CC1(C)C, 15-membered ring, K2CO3, NMP, 142.0 mM, 140.0 °C, 2 steps): 43%

SMILES: CC(C)(C)c1ccc2c(n1)N1C[C@@H](CCC(c3ccc(C(=O)O)cc3)Nc3cccc(n3)S(=O)(=O)NC2=O)CC1(C)C (stereo partly drawn)
- ring closure, yield after HPLC ([1]; from CC1(C)C[C@H](CCC(Nc2cccc(S(=O)(=O)NC(=O)c3ccc(C(C)(C)C)nc3Cl)n2)c2ccc(C(=O)O)cc2)CN1, 15-membered ring, K2CO3, NMP, 26.5 mM, 165.0 °C, 48.0 h): 24%

SMILES: CC(C)COc1cc(F)cc(-c2ccc3c(n2)N2C[C@@H](CCC(c4ccccn4)Nc4cccc(n4)S(=O)(=O)NC3=O)CC2(C)C)c1 (stereo partly drawn)
- ring closure, yield after HPLC ([1]; from CC(C)COc1cc(F)cc(-c2ccc(C(=O)NS(=O)(=O)c3cccc(NC(CC[C@@H]4CN(C(=O)OC(C)(C)C)C(C)(C)C4)c4ccccn4)n3)c(Cl)n2)c1, 15-membered ring, K2CO3, NMP, 38.2 mM, 140.0 °C, 2 steps): 18% and 31%

SMILES: CC1(C)CC2CC(c3ccccc3)CNc3cccc(n3)S(=O)(=O)NC(=O)c3ccc(-n4ccc(OCCC5(C(F)(F)F)CC5)n4)nc3N1C2 (stereo not drawn)
- ring closure, yield after HPLC ([1]; from CC(C)(C)OC(=O)N1CC(CC(CNc2cccc(S(=O)(=O)NC(=O)c3ccc(-n4ccc(OCCC5(C(F)(F)F)CC5)n4)nc3Cl)n2)c2ccccc2)CC1(C)C, 15-membered ring, K2CO3/4A MS, DMSO, 44.7 mM, 140.0 °C, 2 steps): 60%

SMILES: CC1(C)C[C@@H]2CCCNc3cccc(n3)S(=O)(=O)NC(=O)c3cc(Cc4ccccc4)c(F)nc3N1C2
- ring closure, yield after HPLC ([1]; from CC1(C)C[C@H](CCCNc2cccc(S(=O)(=O)NC(=O)c3cc(Cc4ccccc4)c(F)nc3F)n2)CN1, 15-membered ring, K2CO3, NMP, 71.8 mM, 160.0 °C, 21.5 h, 2 steps): 33%

SMILES: CCCC1(C)CC2CCCNc3cccc(n3)S(=O)(=O)NC(=O)c3ccc(-n4ccc(OCCC5(C(F)(F)F)CC5)n4)nc3N1C2 (stereo not drawn)
- ring closure, yield after HPLC ([1]; from CCCC1(C)CC(CCCNc2cccc(S(=O)(=O)NC(=O)c3ccc(-n4ccc(OCCC5(C(F)(F)F)CC5)n4)nc3Cl)n2)CN1, 15-membered ring, K2CO3, NMP, 20.9 mM, 150.0 °C, 16.0 h): 28%

SMILES: CC(C)(C)c1ccc2c(n1)N1C[C@@H](CC[C@@H](c3cccc(Br)n3)Nc3cccc(n3)S(=O)(=O)NC2=O)CC1(C)C (single isomer, unassigned) [Compound 214]
- Corrector Assay A % activity [2]: ++ (++ is 30-60%)
- EC50 [2]: < 1 µM
- ring closure, yield after HPLC [1, 3]: 45%

SMILES: CC(C)(C)c1ccc2c(n1)N1C[C@@H](CC[C@H](c3cccc(Br)n3)Nc3cccc(n3)S(=O)(=O)NC2=O)CC1(C)C (single isomer, unassigned) [Compound 215]
- Corrector Assay A % activity [2]: +++ (+++ is >60%)
- EC50 [2]: < 1 µM
- ring closure, yield after HPLC [1, 3]: 46%

SMILES: CC(C)(C)c1ccc2c(n1)N1C[C@@H](CCC(c3ccc(Cl)cn3)Nc3cccc(n3)S(=O)(=O)NC2=O)CC1(C)C (single isomer, unassigned; diastereomer 1)
- ring closure, yield after HPLC ([1]; from CC1(C)C[C@H](CCC(Nc2cccc(S(=O)(=O)NC(=O)c3ccc(C(C)(C)C)nc3F)n2)c2ccc(Cl)cn2)CN1, 15-membered ring, K2CO3/3A MS, NMP, 78.4 mM, 150.0 °C, 4.0 h, 2 steps): 39%

SMILES: CC(C)C1CC[C@@H]2CN(c3nc(-n4ccc(OCCC5C6(CC6)C56CC6)n4)ccc3C(=O)NS(=O)(=O)c3cccc(n3)N1)C(C)(C)C2 (single isomer, unassigned; diastereomer 1)
- ring closure, yield after HPLC ([1]; from CC(C)C(CC[C@H]1CNC(C)(C)C1)Nc1cccc(S(=O)(=O)NC(=O)c2ccc(-n3ccc(OCCC4C5(CC5)C45CC5)n3)nc2Cl)n1, 15-membered ring, K2CO3, NMP, 20.9 mM, 165.0 °C, 16.0 h): 68%

SMILES: CC(C)(C)c1ccc2c(n1)N1C[C@@H](CCC(c3ccc(Cl)cn3)Nc3cccc(n3)S(=O)(=O)NC2=O)CC1(C)C (single isomer, unassigned; diastereomer 2)
- ring closure, yield after HPLC ([1]; from CC1(C)C[C@H](CCC(Nc2cccc(S(=O)(=O)NC(=O)c3ccc(C(C)(C)C)nc3F)n2)c2ccc(Cl)cn2)CN1, 15-membered ring, K2CO3/3A MS, NMP, 55.9 mM, 150.0 °C, 4.0 h, 2 steps): 34%

SMILES: CC(C)C1CC[C@@H]2CN(c3nc(-n4ccc(OCCC5C6(CC6)C56CC6)n4)ccc3C(=O)NS(=O)(=O)c3cccc(n3)N1)C(C)(C)C2 (single isomer, unassigned; diastereomer 2)
- ring closure, yield after HPLC ([1]; from CC(C)C(CC[C@H]1CNC(C)(C)C1)Nc1cccc(S(=O)(=O)NC(=O)c2ccc(-n3ccc(OCCC4C5(CC5)C45CC5)n3)nc2Cl)n1, 15-membered ring, K2CO3, NMP, 23.0 mM, 165.0 °C, 16.0 h): 60%

SMILES: CC(C)(C)c1ccnc([C@H]2CC[C@@H]3CN(c4nc(Br)ccc4C(=O)NS(=O)(=O)c4cccc(n4)N2)C(C)(C)C3)c1 [Compound 55, (14S,17R)-8-bromo-17-(4-tert-butylpyridin-2-yl)-12,12-dimethyl-2λ^6-thia-3,9,11,18,23-pentaazatetracyclo[17.3.1.111,14.05,10]tetracosa-1(22),5,7,9,19(23),20-hexaene-2,2,4-trione]
- Corrector Assay A % activity [2]: ++ (++ is 30-60%)
- EC50 [2]: < 1 µM
- ring closure, yield after HPLC ([1]; from CC1(C)C[C@@H](CCC(Nc2cccc(S(=O)(=O)NC(=O)c3ccc(Br)nc3Cl)n2)c2cc(C(C)(C)C)ccn2)CN1, 15-membered ring, K2CO3, DMA, 97.8 mM, 140.0 °C, 7.0 h): 23%

SMILES: CC1(C)C[C@@H]2CC[C@H](c3cccc(C(F)(F)F)n3)Nc3cccc(n3)S(=O)(=O)NC(=O)c3ccc(Br)nc3N1C2 [Compound 56, (14S,17R)-8-Bromo-12,12-dimethyl-17-[6-(trifluoromethyl)pyridin-2-yl]-2λ^6-thia-3,9,11,18,23-pentaazatetracyclo[17.3.1.111,14.05,10]tetracosa-1(22),5,7,9,19(23),20-hexaene-2,2,4-trione]
- Corrector Assay A % activity [2]: + (+ is <30%)
- EC50 [2]: > 3 µM
- ring closure, yield after HPLC ([1]; from CC1(C)C[C@@H](CCC(Nc2cccc(S(=O)(=O)NC(=O)c3ccc(Br)nc3Cl)n2)c2cccc(C(F)(F)F)n2)CN1, 15-membered ring, K2CO3, DMA, 98.5 mM, 140.0 °C): 21%

SMILES: CC(C)(C)c1ccc2c(n1)N1C[C@@H](CCCn3ccc4ccc(cc43)S(=O)(=O)NC2=O)CC1(C)C [Compound 260, (5S)-11-tert-Butyl-7,7-dimethyl-17λ^6-thia-1,8,10,16-tetraazapentacyclo[16.5.2.15,8.09,14.021,24]hexacosa-9(14),10,12,18,20,22,24-heptaene-15,17,17-trione]
- Corrector Assay A % activity [2]: + (+ is <30%)
- EC50 [2]: < 1 µM
- ring closure, yield after HPLC ([1]; from CC(C)(C)OC(=O)N1C[C@@H](CCCn2ccc3ccc(S(=O)(=O)NC(=O)c4ccc(C(C)(C)C)nc4Cl)cc32)CC1(C)C, 15-membered ring, K2CO3, NMP, 118.8 mM, 160.0 °C, 2 steps): 5%

SMILES: CC1(C)CCCc2cc3c(nc21)N1C[C@@H](CCCNc2cccc(n2)S(=O)(=O)NC3=O)CC1(C)C [Compound 265, (18S)-11,11,16,16-Tetramethyl-2λ^6-thia-3,13,15,22,27-pentaazapentacyclo[21.3.1.115,18.05,14.07,12]octacosa-1(27),5(14),6,12,23,25-hexaene-2,2,4-trione]
- Corrector Assay A % activity [2]: ++ (++ is 30-60%)
- EC50 [2]: < 1 µM
- ring closure, yield after HPLC ([1]; from CC1(C)C[C@H](CCCNc2cccc(S(=O)(=O)NC(=O)c3cc4c(nc3Cl)C(C)(C)CCC4)n2)CN1, 15-membered ring, K2CO3/3A MS, NMP, 33.9 mM, 170.0 °C, 84.0 h, 2 steps): 11%

Reference: patent US20220313698A1, “MODULATORS OF CYSTIC FIBROSIS TRANSMEMBRANE CONDUCTANCE REGULATOR” (Vertex Pharmaceuticals Incorporated, priority 2019, published 2022)
